Measurements reported in patent US11279733B2, “Peptide antibiotics” (priority 2017, dated 2022).
Values after ≈ are worked out from the molar mass of the structure shown. Positions of bridges follow the written chain, without caps; N, C: chain ends. Non-standard residues stand in square brackets, D forms with d. Residues, ends and D or L forms follow the SMILES beside them. *: point of attachment. Decanoyl(3R-OH) = CCCCCCC[C@@H](O)CC(=O)*; dBip = N[C@H](Cc1ccc(-c2ccccc2)cc1)C(=O)O; dIgl = N[C@@H](C(=O)O)C1Cc2ccccc2C1; Igl = N[C@H](C(=O)O)C1Cc2ccccc2C1; Tle = CC(C)(C)[C@H](N)C(=O)O; dDab = NCC[C@@H](N)C(=O)O; Octanoyl = CCCCCCCC(=O)*; dDap = NC[C@@H](N)C(=O)O; Dab = NCC[C@H](N)C(=O)O

Experiments:
A. baumannii ATCC 19606 = settings: ATCC 19606
How it was run: (§1)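 Mid-log cultures grown in Mueller Hinton broth at 37° C were tested by 2-fold broth microdilution at 5×10^5 CFU/mL final. Compounds were dissolved in water and tested over a final range of 32 to 0.015 μg/mL.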

A. baumannii GN_093 PmxR = settings: GN 093 PmxR
How it was run: as §1

E. coli ATCC 25922 = settings: ATCC 25922
How it was run: as §1

K. pneumoniae ATCC 13883 = settings: ATCC 13883
How it was run: as §1

[1] = system: K. pneumoniae ATCC 700603, MDR; settings: ATCC 700603
How it was run: as §1

[2] = system: K. pneumoniae ATCC BAA-2146, NDM-1 pos; settings: ATCC BAA-2146
How it was run: as §1

[3] = system: K. pneumoniae GN_102 PmxR; settings: GN 102 PmxR
How it was run: as §1

[4] = system: K. pneumoniae GN_106, PmxR; settings: GN 106, PmxR
How it was run: as §1

P. aeruginosa ATCC 27853 = settings: ATCC 27853
How it was run: as §1

[5] = system: P. aeruginosa GN_043, PmxR; settings: polymyxin-resistant
How it was run: as §1

[6] = system: P. aeruginosa GN_105, PmxR; settings: GN 105, PmxR
How it was run: as §1

[7] = system: S. aureus ATCC 25923, MSSA; settings: ATCC 25923
How it was run: as §1

in vitro = settings: for CC50 at 24 h: human
How it was run: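 Viability is measured by resazurin reduction (5 μM, 2 h, 37 °C) after cells seeded at 4000 per well are treated with compound for 24 h.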

SMILES	MIC A. baumannii ATCC 19606 (A. baumannii ATCC 19606) [µg/mL]	MIC A. baumannii GN_093 PmxR (A. baumannii GN_093 PmxR) [µg/mL]	MIC E. coli ATCC 25922 (E. coli ATCC 25922) [µg/mL]	MIC K. pneumoniae ATCC 13883 (K. pneumoniae ATCC 13883) [µg/mL]	MIC K. pneumoniae ATCC 700603, MDR [1] [µg/mL]	MIC K. pneumoniae ATCC BAA-2146, NDM-1 pos [2] [µg/mL]	MIC K. pneumoniae GN_102 PmxR [3] [µg/mL]	MIC K. pneumoniae GN_106, PmxR [4] [µg/mL]	MIC P. aeruginosa ATCC 27853 (P. aeruginosa ATCC 27853) [µg/mL]	MIC P. aeruginosa GN_043, PmxR [5] [µg/mL]	MIC P. aeruginosa GN_105, PmxR [6] [µg/mL]	MIC S. aureus ATCC 25923, MSSA [7] [µg/mL]	CC50 at 24 h (in vitro) [µM]	CC50 (in vitro) [µM]
CCCCCCCC(=O)N[C@H](CN)C(=O)N[C@H]1CCNC(=O)[C@H](Cc2c[nH]c3ccccc23)NC(=O)[C@H](CCN)NC(=O)[C@H](CCN)NC(=O)[C@H](CC(C)C)NC(=O)[C@@H](Cc2ccccc2)NC(=O)[C@H](CCN)NC1=O [compound 8887, nC7CO-D-Dap-cyc[L-Dab-L-Dab-D-Phe-L-Leu-L-Dab-L-Dab-L-Trp]] (Octanoyl-[dDap][Dab][Dab][dF]L[Dab][Dab]W; lactam 2-C)	32 (≈ 30.2 µM)	>32	8 (≈ 7.55 µM)	16 (≈ 15.1 µM)	4 (≈ 3.78 µM)	8 (≈ 7.55 µM)	32 (≈ 30.2 µM)	16 (≈ 15.1 µM)	2 (≈ 1.89 µM)	2 (≈ 1.89 µM)	8 (≈ 7.55 µM)	8 (≈ 7.55 µM)	190	–
CCCCCCC[C@@H](O)CC(=O)N[C@H](CN)C(=O)N[C@H]1CCNC(=O)[C@H](Cc2c[nH]c3ccccc23)NC(=O)[C@H](CCCNC(=N)N)NC(=O)[C@H](CCCCN)NC(=O)[C@H](C2Cc3ccccc3C2)NC(=O)[C@@H](Cc2ccccc2)NC(=O)[C@H](CCN)NC1=O [compound 8888, 3(R)OH-nC9CO-D-Dap-cyc[L-Dab-L-Dab-D-Phe-L-indanylgly-L-Lys-L-Arg-L-Trp]] ({Decanoyl(3R-OH)}-[dDap][Dab][Dab][dF][Igl]KRW; lactam 2-C)	4 (≈ 3.21 µM)	8 (≈ 6.41 µM)	2 (≈ 1.6 µM)	4 (≈ 3.21 µM)	2 (≈ 1.6 µM)	2 (≈ 1.6 µM)	4 (≈ 3.21 µM)	4 (≈ 3.21 µM)	4 (≈ 3.21 µM)	4 (≈ 3.21 µM)	2 (≈ 1.6 µM)	2 (≈ 1.6 µM)	–	67
CCCCCCC[C@@H](O)CC(=O)N[C@H](CN)C(=O)N[C@H]1CCNC(=O)[C@H](Cc2c[nH]c3ccccc23)NC(=O)[C@H](CCCCN)NC(=O)[C@H](CCCNC(=N)N)NC(=O)[C@H](C2Cc3ccccc3C2)NC(=O)[C@@H](Cc2ccccc2)NC(=O)[C@H](CCN)NC1=O [compound 8890, 3(R)OH-nC9CO-D-Dap-cyc[L-Dab-L-Dab-D-Phe-L-indanylgly-L-Arg-L-Lys-L-Trp]] ({Decanoyl(3R-OH)}-[dDap][Dab][Dab][dF][Igl]RKW; lactam 2-C)	8 (≈ 6.41 µM)	8 (≈ 6.41 µM)	2 (≈ 1.6 µM)	2 (≈ 1.6 µM)	2 (≈ 1.6 µM)	4 (≈ 3.21 µM)	4 (≈ 3.21 µM)	4 (≈ 3.21 µM)	4 (≈ 3.21 µM)	4 (≈ 3.21 µM)	2 (≈ 1.6 µM)	2 (≈ 1.6 µM)	67	–
CCCCCCC[C@@H](O)CC(=O)N[C@H](CN)C(=O)N[C@H]1CCNC(=O)[C@H](Cc2c[nH]c3ccccc23)NC(=O)[C@H](CCCNC(=N)N)NC(=O)[C@H](CCCCN)NC(=O)[C@H](C(C)(C)C)NC(=O)[C@@H](Cc2ccc(-c3ccccc3)cc2)NC(=O)[C@H](CCN)NC1=O [compound 8892, 3(R)OH-nC9CO-D-Dap-cyc[L-Dab-L-Dab-D-Bip-L-tert-Leu-L-Lys-L-Arg-L-Trp]] ({Decanoyl(3R-OH)}-[dDap][Dab][Dab][dBip][Tle]KRW; lactam 2-C)	8 (≈ 6.33 µM)	8 (≈ 6.33 µM)	4 (≈ 3.17 µM)	8 (≈ 6.33 µM)	4 (≈ 3.17 µM)	4 (≈ 3.17 µM)	8 (≈ 6.33 µM)	8 (≈ 6.33 µM)	8 (≈ 6.33 µM)	4 (≈ 3.17 µM)	4 (≈ 3.17 µM)	4 (≈ 3.17 µM)	> 300	–
CCCCCCC[C@@H](O)CC(=O)N[C@H](CN)C(=O)N[C@H]1CCNC(=O)[C@H](Cc2c[nH]c3ccccc23)NC(=O)[C@H](CCCNC(=N)N)NC(=O)[C@H](CCCCN)NC(=O)[C@H](CC(C)C)NC(=O)[C@@H](C2Cc3ccccc3C2)NC(=O)[C@H](CCN)NC1=O [compound 8896, 3(R)OH-nC9CO-D-Dap-cyc[L-Dab-L-Dab-D-indanylgly-L-Leu-L-Lys-L-Arg-L-Trp]] ({Decanoyl(3R-OH)}-[dDap][Dab][Dab][dIgl]LKRW; lactam 2-C)	8 (≈ 6.59 µM)	16 (≈ 13.2 µM)	2 (≈ 1.65 µM)	8 (≈ 6.59 µM)	2 (≈ 1.65 µM)	2 (≈ 1.65 µM)	16 (≈ 13.2 µM)	4 (≈ 3.3 µM)	4 (≈ 3.3 µM)	4 (≈ 3.3 µM)	2 (≈ 1.65 µM)	2 (≈ 1.65 µM)	102	–
CCCCCCC[C@@H](O)CC(=O)N[C@H](CN)C(=O)N[C@H]1CCNC(=O)[C@H](Cc2c[nH]c3ccccc23)NC(=O)[C@H](CCN)NC(=O)[C@H](CCN)NC(=O)[C@H](C2Cc3ccccc3C2)NC(=O)[C@@H](C2Cc3ccccc3C2)NC(=O)[C@H](CCN)NC1=O [compound 8897, 3(R)OH-nC9CO-D-Dap-cyc[L-Dab-L-Dab-D-indanylgly-L-indanylgly-L-Dab-L-Dab-L-Trp]] ({Decanoyl(3R-OH)}-[dDap][Dab][Dab][dIgl][Igl][Dab][Dab]W; lactam 2-C)	4 (≈ 3.36 µM)	4 (≈ 3.36 µM)	2 (≈ 1.68 µM)	4 (≈ 3.36 µM)	4 (≈ 3.36 µM)	4 (≈ 3.36 µM)	4 (≈ 3.36 µM)	4 (≈ 3.36 µM)	4 (≈ 3.36 µM)	2 (≈ 1.68 µM)	2 (≈ 1.68 µM)	2 (≈ 1.68 µM)	27	–
CCCCCCCC(=O)N[C@H](CCN)C(=O)N[C@H]1CCNC(=O)[C@H](Cc2c[nH]c3ccccc23)NC(=O)[C@H](CCN)NC(=O)[C@H](CCN)NC(=O)[C@H](C2Cc3ccccc3C2)NC(=O)[C@@H](Cc2ccccc2)NC(=O)[C@H](CCN)NC1=O [compound 8898, nC7CO-D-Dab-cyc[L-Dab-L-Dab-D-Phe-L-indanylgly-L-Dab-L-Dab-L-Trp]] (Octanoyl-[dDab][Dab][Dab][dF][Igl][Dab][Dab]W; lactam 2-C)	16 (≈ 14.1 µM)	16 (≈ 14.1 µM)	4 (≈ 3.53 µM)	8 (≈ 7.06 µM)	4 (≈ 3.53 µM)	4 (≈ 3.53 µM)	4 (≈ 3.53 µM)	8 (≈ 7.06 µM)	4 (≈ 3.53 µM)	4 (≈ 3.53 µM)	4 (≈ 3.53 µM)	4 (≈ 3.53 µM)	90	–
